Laboratory results published in patent publication US20020037544A1 (priority 1998, published 2002).
“Also recorded” adds a separate entry of the source.

Assays:
β-catenin, p120 and p100 = assay: PY20 anti-phosphotyrosine immunoprecipitation and immunoblotting; assay type: cell-based, Human; details: HUVEC; for β-catenin and p120/p100 in phosphotyrosine (PY20) immunoprecipitates: 2.6 nM VEGF or 10 μM histamine 5 minutes, 100 μM pervanadate 15 minutes
Experimental: For p120/p100-specific and phosphotyrosine (PY20) protein immunoprecipitations, the cells were lysed in boiling SDSSB (1% SDS, 25 mM Hepes, 2 mM EDTA, 0.1 M NaCl, 25 mM NaF, 1 mM vanadate, pH 7.6). The lysate was then collected, heated at 100° C. for 5 minutes, cooled and diluted with four volumes of ice-cold TX buffer that contained 2.9% instead of 1% Triton X-100. Immunoprecipitation was performed as described for TX buffer extractions.
Some cells were treated for 15 minutes with 100 μM of the broad-spectrum tyrosine phosphatase inhibitor, pervanadate. Lysates of the cells were prepared by immediate extraction into a boiling solution of an SDS-based buffer containing kinase and phosphatase inhibitors, as described above.
These extracts were then immunoprecipitated with antiphosphotyrosine antibody PY20 and analyzed by immunoblotting with PY20 (FIG. 7D).

p120 and p100 [1] = assay: p120/p100 band shift (mobility shift) by SDS-PAGE and immunoblotting in HUVEC; assay type: cell-based, Human; details: for p120/p100 electrophoretic mobility (band shift): 10 μM histamine, 200 nM PDB
Experimental: (§1) Human umbilical vein endothelial cells (HUVEC), pooled donors, were from BioWhitaker and cultured in EGM on collagen-coated plastic (Falcon) according to the supplier's instructions. The cells were cultured in medium in the presence of 100 U/ml penicillin and 100 μg/ml streptomycin at 37° C. in humidified air containing 10% CO2. Routinely, stocks were maintained in 75 cm^2 flasks and split at a 1:3 ratio when almost confluent. For experimental use, cells were seeded in appropriate plasticware such that confluence was established within 2-3 days and the cells were usually used 5-6 days after seeding. Prior to experimental use, confluent monolayers of cells were equilibrated in fresh medium for at least 2 hours prior to the start of the experiment. Compounds and agents that were only soluble in Me2SO were added to the culture medium of the cells in an equal volume of CO2-and temperature-equilibrated medium containing twice the finally required concentration of compound. […] Aqueous soluble agents were added at a 1:100 dilution directly to the cultures. In all cases, appropriate vehicle controls were performed and found to have no effect.
(§2) Whole cell lysates were prepared by aspiration of culture medium and immediately replacing it with boiling hot Laemmli sample buffer (Laemmli, U. K. (1970) Cleavage of structural proteins during the assembly of the head of bacteriophage T4. Nature 227, 680-685) supplemented with 5 mM EDTA.Na4. The samples were collected and heated at 100° C. for 5 minutes. Proteins were resolved by gel electrophoresis using 8% acrylamide slab gels (Hoefer SE 600 system, 16 cm) and the buffers described (Laemmli, 1970, loc cit). Gels were run overnight at 55 V. The gels were then equilibrated for 30 minutes in buffer at 4° C. containing 48 mM Tris, 39 mM glycine, 0.03% SDS (w/v) and 20% methanol (v/v), and electrotransferred to nitrocellulose filters (Hybond ECL, Amersham) at 4° C. After Ponceau S staining, the filters were blocked in PBS containing 1% (w/v) BSA and 0.05% (v/v) Tween-20. The filters were then incubated with primary antibody, rinsed and immunoreactive bands were detected using appropriate HRP-conjugated secondary antibody and chemiluminescence (ECL, Amersham).
Incubations were performed in triplicate and analyzed in parallel. The cells were extracted in Laemmli sample buffer and proteins were resolved by SDS-PAGE. […] Other experiments have shown that this is due to the loss of phosphate from the protein on serine and threonine residues.
(§3) Cell extracts were prepared and p120 (◯) and p100 (●) were detected by immunoblotting following SDS-PAGE, FIG. 2, Panel A. The same filter was also probed with the antibody recognizing the activated forms of p42 and p44 MAP kinase (arrowheads), FIG. 2, Panel B. Equal loading of lanes was verified as in FIG. 1. […] After 60 minutes of incubation, the effect was less apparent (FIG. 2A). The kinetics paralleled those of the increase in amount of activated MAP kinase (FIG. 2B).
(§4) Cell extracts were prepared and p120 (◯) and p100 (●) were detected by immunoblotting following SDS-PAGE, FIG. 3, Panel A. The same filter was also probed with the antibody recognizing the activated forms of p42 and p44 MAP kinase (arrowheads), FIG. 3, Panel B. Equal loading lanes was verified as in FIG. 1. […] The sensitivity of the increase in amount of activated MAP kinase paralleled that of the increase in p120/p100 mobility (FIG. 3B).
To determine which receptor(s) were responsible for the p120/p100 shift, the effects of placenta derived growth factor (P/GF), a VEGFR-1-specific ligand, were examined.

p42 and p44 MAP kinase = assay: immunoblot for activated forms of p42 and p44 MAP kinase in HUVEC; assay type: cell-based, Human; details: for amount of activated (phosphorylated) p42/p44 MAP kinase: 10 μM histamine, 200 nM phorbol 12,13 dibutyrate
Experimental: as §1, §2
To reveal other changes in VEGF-stimulated signalling processes, the filters were also probed with an antibody recognizing the activated forms of p42 and p44 MAP kinase.
as §3, §4
To determine which receptor(s) were responsible for the p120/p100 shift, the effects of placenta derived growth factor (P/GF), a VEGFR-1-specific ligand, were examined. Confluent monolayers of HUVECs were incubated for 5 minutes in the absence (lane labelled C) or presence of P/GF at 100 (P/GF100) or 1000 ng/ml (P/GF1000). […] In another experiment, the cells were preincubated for 30 minutes in the absence (−) or presence (+) of 5 μM of the VEGFR-2 inhibitor SU5416. […] In all cases, cell extracts were prepared and p120 (◯) and […] (●) were detected by immunoblotting following SDS-PAGE, FIGS. 4A and 4C. […]

cadherin/catenin complex = details: HUVEC, 2.6 nM VEGF, 5 minutes
Experimental: For analysis of the cadherin and its association with catenins, extraction and immunoprecipitations were performed at 4° C. Cultures were briefly rinsed with ice-cold PBS and then lysed in TX buffer (1% (v/v) Triton X-100, 25 mM Hepes, 2 mM EDTA, 0.1 M NaCl, 25 mM NaF, 1 mM vanadate, pH 7.6 (adjusted with NaOH), 1 mM PMSF, 10 μg/ml soybean trypsin inhibitor, 0.1 U/ml α2-macroglobulin, 10 μg/ml leupeptin). The cells were extracted into lysis buffer for 10-15 minutes and then collected after scraping the dish. The lysates were centrifuged at 14,000×g for 20 minutes. The supernatant was precleared with protein A-Sepharose (Pharmacia) for 1 hour and then incubated with primary antibody for 1 hour followed by a further 1 hour with protein A-Sepharose together with rabbit anti-mouse antibodies. After five washes in lysis buffer, immune complexes were dissociated by addition of Laemmli sample buffer followed by heating at 100° C. for 5 minutes. Protein analysis was by SDS-PAGE and immunoblotting as described above.

p120 and p100 [2] = details: HUVEC, 5 minutes; 2.6 nM VEGF, 10 μM histamine, 200 nM PDB
Experimental: [^32P]Phosphate labelling was performed using Puck's Saline A (P-2917; Sigma, supplemented with 10 mM Hepes (Gibco), 2 mM glutamine (Gibco), 1 mM CaCl2, 1 mM MgSO4 and 0.2% (v/v) foetal calf serum. Cultures were rinsed twice with medium and then incubated with the same medium containing 100 μCi/ml of [^32P]phosphate. Labelling was for 2 hours at 37° C. in humidified air with ambient CO2.
For phosphorylation analysis, cultures of HUVECs were labelled with [^32P]orthophosphate. After appropriate treatment, the cultures were lysed in boiling SDSSB and immunoprecipitated with the anti-p120/p100 antibody as described. For quantitation of [^32P]phosphate:protein, each immunoprecipitation was from protein extracted from ˜10 cm^2 of confluent culture. For the phosphoaminoacid analysis and Cleveland maps, protein from ˜60 cm^2 of confluent cells was used per immunoprecipitation. After separation by SDS-PAGE, for quantitation of [^32P]phosphate and p120/p100, protein was transferred to nitrocellulose and [^32P]phosphate incorporated into p120/p100 was detected by autoradiography. […] The area of filter containing p120 or p100 was detected by autoradiography, excised, and protein was acid hydrolysed to release phosphoaminoacids. These were then separated in two dimensions by high voltage electrophoresis at pH 1.9 and pH 3.5 and detected by autoradiography (Boyle et al., 1991). […]

p120 and p100 [3] = details: HUVEC, 2.6 nM VEGF, 5 minutes
HUVEC = details: 2.6 nM VEGF, 5 minutes
Experimental: Confluent monolayers of cells were fixed at room temperature for 15 minutes in 3% paraformaldehyde made up in PBS. Fixed cells were rinsed and then permeabilized by incubation with 0.5% Triton X-100 in PBS for 30 minutes. All antibodies were diluted in PBS containing 10% FCS, 0.1 M lysine, 0.3% Triton-X-100 and 0.02% azide. Incubation with antibody recognizing junction-associated protein was at 4° C. overnight followed by incubation with mouse or rabbit anti-phosphotyrosine antibody for 2 hours at room temperature. Secondary antibodies recognizing mouse and rabbit IgG conjugated to Cy3 or fluorescein, respectively, were applied together for 1 hour at room temperature. After rinsing, the samples were mounted under Citifluor and viewed with epifluorescence on a Nikon Eclipse E800 microscope. Photographs were taken using Kodak T-MAX film (400 ASA).
After 5 minutes, the cells were fixed and then stained. […] All images were from similarly timed exposures. Bar, 20 μm.

[4] = HUVEC, 100 μM pervanadate, 15 minutes
[5] = HUVEC preincubated 30 minutes with 5 μM, then 2.6 nM VEGF 5 minutes
[6] = HUVEC preincubated 30 minutes with 5 μM, then 10 μM histamine 5 minutes
[7] = HUVEC, 5 minutes, P/GF at 100 or 1000 ng/ml

For `NCCc1c[nH]cn1` [Histamine, reference compound], the “β-catenin and p120/p100 in phosphotyrosine (PY20) immunoprecipitates” value (“β-catenin and p120/p100” for short) (β-catenin, p120 and p100) was “did not reveal any hint”, the “p120/p100 electrophoretic mobility (band shift)” value (p120 and p100 [1]; HUVEC, 5 minutes, 2.6 nM VEGF) was “effective; also recorded: increased electrophoretic mobility; also recorded: produced effects” and the “amount of activated (phosphorylated) p42/p44 MAP kinase” value (from here on “amount of activated”) (p42 and p44 MAP kinase; HUVEC, 5 minutes, 2.6 nM VEGF) was “increased the amounts of phospho-MAP kinases”. For the same molecule, the “amount of activated” value (p42 and p44 MAP kinase; HUVEC, 5 minutes, 2.6 nM VEGF, listed as histamine) was “effective; also recorded: produced effects”.

For pervanadate [reference compound], the “β-catenin and p120/p100” value (β-catenin, p120 and p100) was “detected”, the “mobility of p120/p100” value (p120 and p100 [1]; [4]) was “did not affect the mobility” and the “activation of MAP kinase” value (p42 and p44 MAP kinase; [4]) was “did lead to activation of MAP kinase”.

For `CCCC(=O)O[C@@H]1[C@@H](C)[C@@]2(O)[C@@H](C=C(CO)C[C@]3(O)C(=O)C(C)=C[C@@H]23)[C@@H]2C(C)(C)[C@]12OC(=O)CCC` [PDB, Phorbol-12,13-dibutyrate, reference compound], the “p120/p100 electrophoretic mobility (band shift)” value (p120 and p100 [1]; HUVEC, 5 minutes, 2.6 nM VEGF) was “increased electrophoretic mobility” and the “amount of activated” value (p42 and p44 MAP kinase; HUVEC, 5 minutes, 2.6 nM VEGF) was “without effect”.

`Cc1cc(C)c(/C=C2\C(=O)Nc3ccccc32)[nH]1` [SU5416, reference compound] was tested, and the “effect on VEGF-stimulated increase in p120/p100 mobility” value (p120 and p100 [1]; [5]) was “blocked”, the “effect on histamine-stimulated mobility shift in p120/p100” value (p120 and p100 [1]; [6]) was “did not block” and the “effect on VEGF-stimulated activation of MAP kinase” value (p42 and p44 MAP kinase; [5]) was “blocked”. For the same molecule, the “effect on histamine-stimulated activation of MAP kinase” value (p42 and p44 MAP kinase; [6]) was “did not block”.

With VEGF the “association of catenins with cadherins (VE-cadherin, N-cadherin, α, β and γ catenin, p120, p100)” value (cadherin/catenin complex) was “no effect on association of any members of the complex”, the “focal contact protein tyrosine phosphorylation (PY20 immunoprecipitation)” value (β-catenin, p120 and p100; 2.6 nM VEGF, 5 minutes) was “increased” and the “β-catenin and p120/p100” value (β-catenin, p120 and p100) was “did not reveal any hint”. For the same molecule, the “time at which increase in mobility of p120 and p100 was observed” value (p120 and p100 [1]; HUVEC, 2.6 nM (100 ng/ml) VEGF) was ≤ 2 min, the “time for which increase in mobility of p120 and p100 was sustained” value (p120 and p100 [1]; HUVEC, 2.6 nM (100 ng/ml) VEGF) was “up to 30 minutes” and the “effect on p120/p100 mobility after 60 minutes of incubation” value (p120 and p100 [1]; HUVEC, 2.6 nM VEGF, 60 minutes) was “less apparent”. The “lowest concentration with observed effect on p120/p100 mobility” value (p120 and p100 [1]; HUVEC, 5 minutes) was 0.1 nM, the “p120/p100 electrophoretic mobility (band shift)” value (p120 and p100 [1]; HUVEC, 5 minutes, 2.6 nM VEGF) was “migrate as faster, tighter bands; also recorded: effective; also recorded: increased electrophoretic mobility; also recorded: produced effects” and the “kinetics of increase in activated MAP kinase relative to p120/p100 mobility” value (p42 and p44 MAP kinase; HUVEC, 2.6 nM VEGF, time course) was “paralleled”. The “sensitivity of increase in activated MAP kinase relative to p120/p100 mobility” value (p42 and p44 MAP kinase; HUVEC, 5 minutes, indicated concentrations of VEGF) was “paralleled”, the “amount of activated” value (p42 and p44 MAP kinase; HUVEC, 5 minutes, 2.6 nM VEGF) was “clearly stimulated an increase; also recorded: effective; also recorded: produced effects” and the “phosphate incorporation into 30 kDa and 17 kDa V8 cleavage products of p120 and p100” value (p120 and p100 [2]) was “substantially decreased”. The “phosphotyrosine in p120 and p100” value (p120 and p100 [3]) was “not detected”, the “amount of phosphoserine and phosphothreonine in p120 and p100” value (p120 and p100 [3]; 10 μM histamine, 200 nM PDB) was “decreased” and the “colocalization of altered phosphotyrosine staining with β-catenin staining” value (HUVEC) was “did not colocalize”. For the same molecule, the “phosphotyrosine striations within the cells” value (HUVEC) was “increased” and the vinculin staining (HUVEC) was “appearance of vinculin-positive striations”.

B1: P/GF: placenta derived growth factor, a VEGFR-1-specific ligand, from R & D Systems (protein, UniProt P49763 19-221, looked up)
Placenta growth factor: LPAVPPQQWALSAGNGSSEVEVVPFQEVWGRSYCRALERLVDVVSEYPSEVEHMFSPSCVSLLRCTGCCGDENLHCVPVETANVTMQLLKIRSGDRPSYVELTFSQHVRCECRHSPGRQSPDMPGDFRADAPSFLPPRRSLPMLFRMEWGCALTGSQSAVWPSSPVPEEIPRMHPGRNGKKQQRKPLREKMKPERCGDAVPRR
With B1 the “mobility shift in p120/p100” value (p120 and p100 [1]; [7]) was “failed to stimulate a mobility shift” and the “activation of MAP kinase” value (p42 and p44 MAP kinase; [7]) was “did not lead to activation of MAP kinase”.
